Values joined by “and” are separate entries in the source; they are usually repeats but may differ in a detail not shown here. Equal values may be shown once.
Tests used:
Type in all cases: cell-based
[1] = test system: SARS-CoV-2 Delta (B.1.617.2); assay: microbe, parasite or virus in culture
[2] = test system: SARS-CoV-2 Omicron (B.1.1.529); assay: microbe, parasite or virus in culture
[3] = test system: SARS-CoV-2 Delta (B.1.617.2); assay: CPE assay, neutral red, Vero E6 cells with 2 μM CP-100356, Delta

## COC(=O)/C=C/C(=O)NNC(=O)CCc1ccccc1C(=O)N[C@H](C)c1cccc2ccccc12 [Compound 7, methyl(R,E)-4-(2-(3-(2-((1-(naphthalen-1 yl)ethyl)carbamoyl)phenyl)propanoyl)hydrazineyl)-4-oxobut-2-enoate]
[1]
  Virus Titer: 4.5 CCID50/mL (Log10) and 4.7 CCID50/mL (Log10) and 5.0 CCID50/mL (Log10)
[2]
  Virus Titer: 2.5 CCID50/mL (Log10) and 3.0 CCID50/mL (Log10)
[3]
  Percent Cytopathic Effect (Neutral Red): 49.9% and 76.0% and 99.5% and 99.2%

Reference: article PMC10044120, “Potent and selective covalent inhibition of the papain-like protease from SARS-CoV-2” (Nature Communications, 2023)
